Data set [1] concerns the target T1, myeloperoxidase (MPO) (Homo sapiens, UniProt P05164).
T1 construct: Native myeloperoxidase (MPO) was obtained from human leukocyte extract by successive chromatography on heparin-Sepharose and phenyl-agarose; from tissue; host or cells: human leukocyte extract
The data set can be described thus: MPO chlorinating activity (Celestine Blue B assay). Format: biochemical. Conditions: 0.008–8 μM peptide, 0.8 nM MPO heme, 200 μM CB, 150 mM NaCl, 50 μM H2O2, 50 mM Na-acetate pH 5.5. As for the experimental part: MPO chlorinating activity was evaluated fluorometrically using Celestine Blue B (CB) which was oxidized to fluorescent glycol (λex = 487 nm, λem = 578 nm) by taurine N-chloramine produced in the reaction of taurine with HOCl generated by MPO [39]. The assay was performed in 96-plate format. MPO was preincubated with peptides for 5 min in a volume of 100 μL, with the concentrations being: MPO, 1.6 nM heme and peptide, 16 nM–16 μM. Then, 100 μL aliquots of CB-containing mix (CB, 400 µM; H2O2, 100 µM; taurine, 4 mM; KI, 10 µM; NaCl, 300 mM; 50 mM Na-acetate buffer, pH 5.5) were added to MPO/peptide and to 100 μL of HOCl standards (0–150 μM). The fluorescence measurement was made with a CLARIOstar multimodal plate reader (BMG Labtech, Ortenberg, Germany) at 15 min after the reaction started. Fluorescence intensity detected for HOCl standards of HOCl was used for calculating the chlorinating activity as mole of HOCl per mole of MPO heme per second. To determine the type of CAMP-induced inhibition, KM and Vmax were obtained by varying substrates of MPO: NaCl in a final concentration from 25 to 300 mM, or H2O2 in a final concentration from 5 to 80 µM.
(§1) The Hannes-Wolf plots were made as ([Substrate]/V = f([Substrate]). KM was equal in magnitude to the intercept made on the abscissa axis by the approximating straight line; Vmax was calculated as a reciprocal value of the straight-line slope. The inhibition constant (Ki) for noncompetitive inhibition was calculated as follows: Ki = [I]/((Vmax − Vmax’)/Vmax’); Ki for competitive inhibition was calculated as follows: Ki = [I]/((KM’ − KM)/KM); Ki for mixed inhibition was calculated as follows: Ki = [I]/(((KM’ − KM)/KM)^2 + ((Vmax − Vmax’)/Vmax’))^2)^0.5; and Ki for uncompetitive inhibition was calculated as follows: Ki = [I]/(((KM − KM’)/KM’)^2 + ((Vmax – Vmax’)/Vmax’))^2)^0.5, where [I]—concentration of inhibitor (CAMP), KM—Michaelis constant without inhibitor, Vmax—maximal rate without inhibitor, KM’—Michaelis constant in the presence of inhibitor, Vmax’—maximal rate in the presence of inhibitor.
Chlorinating activity is a distinctive feature of MPO as compared with other peroxidases and it is an important property, enabling MPO to combat microbes. We tested whether the inhibitory effects of pept_1545 and Hm-AMP8 on peroxidase activity extend to MPO chlorinating activity. Chlorinating activity was measured using a fluorometric CB-based assay. To determine the concentration dependence of the effect of CAMPs on MPO chlorinating activity, the 0.008–8 μM concentration range (corresponding to 10–10,000 peptide molecules per heme) was used.

The conditions of data set [2]: 10 mM Na-phosphate pH 7.4; limits peptide/heme ratio to 45:1.
In data set [3] the target is T1, myeloperoxidase (MPO). Put plainly: MPO peroxidase activity (Amplex Red assay). The class given is biochemical. Conditions: 0.8–50 μM peptide, 8 nM MPO heme, 50 μM Amplex Red, 25 μM H2O2, 50 mM K-phosphate pH 7.4. How it is done:
MPO peroxidase activity was evaluated fluorometrically using Amplex Red^TM reagent which was oxidized by MPO to the fluorescent resorufin (λex = 530 nm, λem = 590 nm). The assay was performed in 96-plate format. The final reaction mixture in 50 mM K-phosphate buffer (pH 7.4) was as follows: MPO, 8 nM heme; peptide, […]; H2O2, 25 μM; Amplex Red reagent, 50 μM. MPO was preincubated with peptides for 5 min in a volume of 100 μl. Then, Amplex Red was added, and the enzymatic reaction was initiated by adding H2O2 (a final probe volume of 200 μL per well). The fluorescence measurement was made with a CLARIOstar multimodal plate reader (BMG Labtech, Ortenberg, Germany) at 5 min after the beginning of the reaction. To determine the type of CAMP-induced inhibition, KM and Vmax were obtained by varying substrates of MPO: Amplex Red in a final concentration from 1 to 62.5 μM, or H2O2 in a final concentration from 0.625 to 20 μM.
as §1
From the experiments with varying concentrations of H2O2 (0.01–200 μM) and Amplex Red (6.25–100 μM), the optimal concentrations of 25 μM H2O2 and 50 μM Amplex Red were chosen for further work. The 0.8–50 μM concentration range (corresponding to 100–6250 peptide molecules per heme) was used to determine the concentration dependence of the effect of CAMPs on peroxidase activity of MPO.

Entries after “also recorded” stand apart in the source; their conditions may differ.

T1 sequence (P05164 279-745 limits assumed): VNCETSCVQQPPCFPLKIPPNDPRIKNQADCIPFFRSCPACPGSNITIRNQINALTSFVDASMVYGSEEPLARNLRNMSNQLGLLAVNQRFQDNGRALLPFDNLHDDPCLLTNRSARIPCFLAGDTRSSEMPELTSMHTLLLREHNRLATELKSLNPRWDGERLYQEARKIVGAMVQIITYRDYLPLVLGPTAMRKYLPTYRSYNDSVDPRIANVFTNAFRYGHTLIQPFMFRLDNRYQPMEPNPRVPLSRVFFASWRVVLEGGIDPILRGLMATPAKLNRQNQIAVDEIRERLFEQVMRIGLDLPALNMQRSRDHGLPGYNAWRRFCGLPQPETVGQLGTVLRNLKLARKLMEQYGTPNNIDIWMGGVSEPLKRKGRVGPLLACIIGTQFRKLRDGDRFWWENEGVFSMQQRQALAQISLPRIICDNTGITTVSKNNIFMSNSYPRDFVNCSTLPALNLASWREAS
T1 sequence (P05164 165-273 limits assumed): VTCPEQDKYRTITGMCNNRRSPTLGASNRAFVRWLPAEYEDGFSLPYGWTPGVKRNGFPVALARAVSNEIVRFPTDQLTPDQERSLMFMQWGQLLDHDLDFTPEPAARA

Regarding “EKRWRRLIFNYF [Hm-AMP2, synthetic cationic antimicrobial peptide …]”, the “effect on MPO chlorinating activity” value in data set [1] was “no significant effect”. For the same sequence, the “solubility in phosphate buffer” value in data set [2] is on record as “poor solubility”. For the same sequence, the “effect on MPO peroxidase activity” value in data set [3] is reported as “no inhibition; also recorded: No effect”.

The values are drawn from paper PMC9774438, “Effects of Synthetic Short Cationic Antimicrobial Peptides on the Catalytic Activity of Myeloperoxidase, Reducing Its Oxidative Capacity” (Antioxidants, 2022).
